Experimental data taken from ChEMBL document CHEMBL1795245, “Pyrazoline based MAO inhibitors: synthesis, biological evaluation and SAR studies” (Bioorg Med Chem Lett, 2011).

What was measured:
[1] = molecular target: T1, Amine oxidase [flavin-containing] A (Homo sapiens, UniProt P21397); assay: Inhibition of human MAO-A expressed in BTI insect cells using p-tyramine as substrate after 60 mins
T1 sequence (P21397 whole entry): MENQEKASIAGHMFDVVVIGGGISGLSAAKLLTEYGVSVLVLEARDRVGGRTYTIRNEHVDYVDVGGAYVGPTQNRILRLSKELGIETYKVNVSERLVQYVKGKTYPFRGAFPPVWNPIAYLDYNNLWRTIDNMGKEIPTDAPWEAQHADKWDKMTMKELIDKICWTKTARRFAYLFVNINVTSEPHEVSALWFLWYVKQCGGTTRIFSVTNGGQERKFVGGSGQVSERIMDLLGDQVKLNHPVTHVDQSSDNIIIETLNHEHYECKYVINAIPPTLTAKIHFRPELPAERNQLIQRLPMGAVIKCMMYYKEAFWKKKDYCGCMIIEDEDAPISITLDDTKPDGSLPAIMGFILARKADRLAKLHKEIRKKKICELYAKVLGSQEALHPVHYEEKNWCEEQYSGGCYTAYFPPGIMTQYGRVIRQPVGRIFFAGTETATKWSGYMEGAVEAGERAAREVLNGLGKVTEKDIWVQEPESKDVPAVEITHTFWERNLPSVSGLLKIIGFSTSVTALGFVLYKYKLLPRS

[2] = molecular target: T2, Amine oxidase [flavin-containing] B (Homo sapiens, UniProt P27338); assay: Inhibition of human MAO-B expressed in BTI insect cells using p-tyramine as substrate after 60 mins; format: cell-based
T2 sequence (P27338 whole entry): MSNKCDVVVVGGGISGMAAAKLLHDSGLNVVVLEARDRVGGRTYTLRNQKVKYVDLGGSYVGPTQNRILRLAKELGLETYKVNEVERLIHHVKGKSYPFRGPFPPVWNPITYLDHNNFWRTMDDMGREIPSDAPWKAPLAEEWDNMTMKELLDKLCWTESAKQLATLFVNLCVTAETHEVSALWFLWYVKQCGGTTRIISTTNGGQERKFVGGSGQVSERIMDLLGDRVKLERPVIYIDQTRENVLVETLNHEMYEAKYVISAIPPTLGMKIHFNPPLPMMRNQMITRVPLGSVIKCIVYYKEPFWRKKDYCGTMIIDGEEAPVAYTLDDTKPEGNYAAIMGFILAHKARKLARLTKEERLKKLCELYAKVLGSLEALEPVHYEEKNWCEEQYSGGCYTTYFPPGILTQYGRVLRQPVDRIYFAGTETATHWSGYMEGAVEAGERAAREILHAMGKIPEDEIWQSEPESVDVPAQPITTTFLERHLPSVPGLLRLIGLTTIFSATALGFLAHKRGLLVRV

Homo sapiens = species: Homo sapiens; assay: Selectivity index, ratio of Ki for human MAO-A to Ki for human MAO-B expressed in BTI insect cells
[3] = molecular target: T1, Amine oxidase [flavin-containing] A; assay: Reversible inhibition of human MAO-A expressed in BTI insect cells using p-tyramine as substrate after 60 mins; details: 1 h
[4] = molecular target: T1, Amine oxidase [flavin-containing] A; assay: Competitive inhibition of human MAO-A expressed in BTI insect cells using p-tyramine as substrate after 60 mins; details: 1 h

Row | Compound | Ki [1] [µM] | Ki [2] [µM] | Ratio Ki (Homo sapiens) | inhibition (INH) [3] | inhibition (INH) [4]
1 | Cc1ccc(NC(=S)N2N=C(c3ccccc3)CC2c2ccc(O)cc2)cc1 (centres undefined) | 0.36 | 300 | 0.001 | Active | Active
2 | Cc1cccc(NC(=S)N2N=C(c3ccccc3)CC2c2ccccc2O)c1 (centres undefined) | 0.3 | 250 | 0.001 | Active | Active
3 | COc1ccccc1NC(=S)N1N=C(c2ccccc2)CC1c1ccccc1O (centres undefined) | 0.31 | 60 | 0.005 | Active | Active
4 | N=C(N)N1N=C(c2ccccc2)CC1c1ccc(Cl)cc1 (centres undefined) | 0.15 | 4.22 | 0.035 | Active | Active
5 | NC(=O)N1N=C(c2ccccc2)CC1c1ccc(Cl)cc1 (centres undefined) | 0.3 | 1.66 | 0.181 | Active | Active
6 | Cc1ccccc1NC(=S)N1N=C(c2ccccc2)CC1c1ccccc1O (centres undefined) | 0.25 | 22 | 0.001 | Active | Active
7 | O=C(NCCN1CCOCC1)c1ccc(Cl)cc1 [MOCLOBEMIDE] |  |  |  | Active | Active
8 | N=C(N)N1N=C(c2ccccc2)CC1c1ccncc1 (centres undefined) | 0.67 | 4.8 | 0.14 | Active | Active
9 | C#CCN(C)[C@H](C)Cc1ccccc1 [SELEGILINE] |  |  |  | Active | Active
10 | COc1ccc(C2CC(c3ccccc3)=NN2C(N)=O)cc1 (centres undefined) | 0.98 | 1.88 | 0.521 | Active | Active
11 | NC(=S)N1N=C(c2ccccc2)CC1c1ccncc1 (centres undefined) | 0.456 | 4 | 0.114 | Active | Active
12 | Cc1cccc(NC(=S)N2N=C(c3ccccc3)CC2c2ccc(O)cc2)c1 (centres undefined) | 0.13 | 256 | 0.000509 | Active | Active
13 | COc1ccc(NC(=S)N2N=C(c3ccccc3)CC2c2ccc(O)cc2)cc1 (centres undefined) | 0.09 | 401 | 0.000226 | Active | Active
14 | Cc1ccccc1NC(=S)N1N=C(c2ccccc2)CC1c1ccc(O)cc1 (centres undefined) | 0.31 | 309 | 0.001 | Active | Active
15 | COc1cccc(NC(=S)N2N=C(c3ccccc3)CC2c2ccc(O)cc2)c1 (centres undefined) | 0.35 | 355 | 0.000988 | Active | Active
16 | Cc1ccc(NC(=S)N2N=C(c3ccccc3)CC2c2ccccc2O)cc1 (centres undefined) | 0.29 | 69.9 | 0.004 | Active | Active
17 | COc1ccc(NC(=S)N2N=C(c3ccccc3)CC2c2ccccc2O)cc1 (centres undefined) | 0.17 | 60.2 | 0.001 | Active | Active
18 | COc1ccccc1NC(=S)N1N=C(c2ccccc2)CC1c1ccc(O)cc1 (centres undefined) | 2.15 | 2130 | 0.001 | Active | Active
19 | Cc1ccc(C2CC(c3ccccc3)=NN2C(N)=O)cc1 (centres undefined) | 0.49 | 3.2 | 0.153 | Active | Active
20 | COc1cccc(NC(=S)N2N=C(c3ccccc3)CC2c2ccccc2O)c1 (centres undefined) | 0.1 | 979 | 0.000102 | Active | Active
21 | Cc1ccc(C2CC(c3ccccc3)=NN2C(=N)N)cc1 (centres undefined) | 0.4 | 4.11 | 0.099 | Active | Active
22 | NC(=O)N1N=C(c2ccccc2)CC1c1ccncc1 (centres undefined) | 7 | 4.79 | 1.46 | Active | Active
